Test [1] has as its target T1, PRMT5/MEP50 complex (Homo sapiens (Human), UniProt O14744). Kind of test: Flash plate assay. The settings on record: read-out: Flash Plate IC50. The format is biochemical. The method, then: Flash plate assay. Compounds were solubilized, and 3-fold diluted in 100% DMSO. […] Standard reactions were performed in a total volume of 30 μl in assay buffer, with 300 nM histone H4 based AcH4-23 (Anaspec: AS-65002) as substrate. To this was added the PRMT5/MEP50 complex diluted to provide a final assay concentration of 2.5 nM and the compounds were allowed to preincubate for 20 minutes at 37° C. The reaction was initiated by adding S-[3H-methyl]-adenosyl-L-methionine (PerkinElmer: NET155001MC) to final concentration of 1 μM. Following a 30 minutes incubation at 37° C., the reaction was stopped by adding 25 μL of 8M Guanidine HCl. Prepare streptavidin YSI SPA beads (Perkinelmer: RPNQ0012) at 0.3 mg/mL in assay buffer. To each reaction, add 150 μL of SPA beads suspension, and incubated while shaking at room temperature for 30 minutes. The plate was centrifuged at 100×g for 30 second before reading in a scintillation counter. IC50 values were determined by fitting the data to the standard 4 parameters with Hill Slope using GraphPad Prism software. This procedure produced the Flash Plate data in Table 7.

The target of test [2] is T1, PRMT5/MEP50 complex. Kind of test: HotSpot Assay. The format is biochemical. How it is done:
HotSpot Assay. Compounds were solubilized and 3-fold diluted in 100% DMSO. […] Standard reactions were performed in a total volume of 50 μl in assay buffer, with histone H2A (5 μM final) as substrate. To this was added the PRMT5/MEP50 complex diluted to provide a final assay concentration of 5 nM and the compounds were allowed to preincubate for 15 to 20 minutes at room temperature. The reaction was initiated by adding S-[3H-methyl]-adenosyl-L-methionine (PerkinElmer) to final concentration of 1 μM. Following a 60 minutes incubation at 30° C., the reaction was stopped by adding 100 μL of 20% TCA. Each reaction was spotted onto filter plate (MultiScreen FB Filter Plate, Millipore), and washed 5 times with PBS buffer, Scintillation fluid was added to the filter plate and read in a scintillation counter. IC50 values were determined by fitting the data to the standard 4 parameters with Hill Slope using GraphPad Prism software. This procedure generated the HotSpot data in Table 7.

Structures are written as SMILES.

T1 sequence (O14744 whole entry): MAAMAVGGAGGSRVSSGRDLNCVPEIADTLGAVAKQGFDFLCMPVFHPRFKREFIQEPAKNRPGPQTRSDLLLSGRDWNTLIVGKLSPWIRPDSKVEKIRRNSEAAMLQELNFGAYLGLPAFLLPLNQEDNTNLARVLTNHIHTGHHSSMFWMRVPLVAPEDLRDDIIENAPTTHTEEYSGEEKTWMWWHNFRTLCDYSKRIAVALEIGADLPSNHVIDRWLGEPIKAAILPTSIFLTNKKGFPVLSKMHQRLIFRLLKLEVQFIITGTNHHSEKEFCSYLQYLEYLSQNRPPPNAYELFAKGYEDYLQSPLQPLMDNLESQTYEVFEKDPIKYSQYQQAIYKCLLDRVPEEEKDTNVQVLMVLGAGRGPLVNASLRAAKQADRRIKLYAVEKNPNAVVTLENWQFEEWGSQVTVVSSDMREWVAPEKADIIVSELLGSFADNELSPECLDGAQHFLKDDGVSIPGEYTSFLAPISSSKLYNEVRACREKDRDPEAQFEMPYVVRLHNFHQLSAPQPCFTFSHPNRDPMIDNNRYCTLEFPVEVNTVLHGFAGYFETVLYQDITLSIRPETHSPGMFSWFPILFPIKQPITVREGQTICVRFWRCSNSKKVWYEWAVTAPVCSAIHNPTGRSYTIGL
T1 sequence (Q9BQA1 whole entry partner): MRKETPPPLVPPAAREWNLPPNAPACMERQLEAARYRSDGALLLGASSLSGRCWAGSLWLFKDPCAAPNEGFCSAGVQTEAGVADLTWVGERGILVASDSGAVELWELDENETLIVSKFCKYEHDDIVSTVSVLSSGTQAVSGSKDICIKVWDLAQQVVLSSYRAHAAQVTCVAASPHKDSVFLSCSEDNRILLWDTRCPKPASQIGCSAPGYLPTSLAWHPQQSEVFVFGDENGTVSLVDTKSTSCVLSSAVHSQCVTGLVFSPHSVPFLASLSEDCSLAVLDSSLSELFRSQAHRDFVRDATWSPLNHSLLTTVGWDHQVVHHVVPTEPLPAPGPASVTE

One may read the IC50 as the point on the concentration scale where inhibition reaches its midpoint. With `CO/N=c1\[nH]cnc2c1ccn2[C@@H]1O[C@H]([C@H](O)c2ccc3c(c2)CC3)[C@@H](O)[C@H]1O` [Example 20, 7-((2R,3R,4S,5R)-5-((R)-bicyclo[4.2.0]octa-1(6),2,4-trien-3-yl(hydroxy)methyl)-3,4-dihydroxytetrahydrofuran-2-yl)-3,7-dihydro-4H-pyrrolo[2,3-d]pyrimidin-4-one O-methyl oxime], the IC50 on PRMT5/MEP50 complex [1] amounted to 121 nM; at PRMT5/MEP50 complex [2], 32 nM.
In the case of `CCO/N=c1\[nH]cnc2c1ccn2[C@@H]1O[C@H]([C@H](O)c2ccc3c(c2)CC3)[C@@H](O)[C@H]1O` [Example 21, 7-((2R,3R,4S,5R)-5-((R)-bicyclo[4.2.0]octa-1(6),2,4-trien-3-yl(hydroxy)methyl)-3,4-dihydroxytetrahydrofuran-2-yl)-3,7-dihydro-4H-pyrrolo[2,3-d]pyrimidin-4-one O-ethyl oxime], the IC50 at PRMT5/MEP50 complex [1] came to 148 nM; at PRMT5/MEP50 complex [2], 153 nM.
Take `CCO/N=c1\[nH]cnc2c1ccn2[C@@H]1O[C@H]([C@](C)(O)c2ccc3c(c2)CC3)[C@@H](O)[C@H]1O` [Example 22, 7-((2R,3R,4S,5S)-5-((R)-1-(bicyclo[4.2.0]octa-1(6),2,4-trien-3-yl)-1-hydroxyethyl)-3,4-dihydroxytetrahydrofuran-2-yl)-3,7-dihydro-4H-pyrrolo[2,3-d]pyrimidin-4-one O-ethyl oxime]: the IC50 on PRMT5/MEP50 complex [1] stood at 189 nM; on PRMT5/MEP50 complex [2] it was 57 nM.
Turning to `CN(C)C(=O)Nc1ncnc2c1ccn2[C@@H]1O[C@H]([C@H](O)c2ccc3c(c2)CC3)[C@@H](O)[C@H]1O` [Example 23, 3-(7-((2R,3R,4S,5R)-5-((R)-bicyclo[4.2.0]octa-1(6),2,4-trien-3-yl(hydroxy)methyl)-3,4-dihydroxytetrahydrofuran-2-yl)-7H-pyrrolo[2,3-d]pyrimidin-4-yl)-1,1-dimethylurea], the 50% inhibitory concentration (IC50) on PRMT5/MEP50 complex [1] turned out to be 697 nM.
`COc1ncnc2c1ccn2[C@@H]1O[C@H]([C@H](O)c2ccc3c(c2)CC3)[C@@H](O)[C@H]1O` [Example 35, (2R,3S,4R,5R)-2-[(R)-4-bicyclo[4.2.0]octa-1,3,5-trienyl(hydroxy)methyl]-5-(4-methoxypyrrolo[2,3-d]pyrimidin-7-yl)tetrahydrofuran-3,4-diol]: the results for the IC50 at PRMT5/MEP50 complex [1] and on PRMT5/MEP50 complex [2] were 287 nM and 46 nM, respectively.
The like results for `Nc1ncnc2c1c(I)cn2[C@@H]1O[C@H]([C@H](O)c2ccc3c(c2)CC3)[C@@H](O)[C@H]1O` [Example 37, (2R,3R,4S,5R)-2-(4-amino-5-iodo-7H-pyrrolo[2,3-d]pyrimidin-7-yl)-5-((R)-bicyclo[4.2.0]octa-1(6),2,4-trien-3-yl(hydroxy)methyl)tetrahydrofuran-3,4-diol] were, in that order, 31 nM and 12 nM.
Take `Nc1ncnc2c1c(C(F)(F)F)cn2[C@@H]1O[C@H]([C@H](O)c2ccc3c(c2)CC3)[C@@H](O)[C@H]1O` [Example 38, (2R,3R,4S,5R)-2-(4-amino-5-(trifluoromethyl)-7H-pyrrolo[2,3-d]pyrimidin-7-yl)-5-((R)-bicyclo[4.2.0]octa-1(6),2,4-trien-3-yl(hydroxy)methyl)tetrahydrofuran-3,4-diol]: the IC50 was found to be 221 nM at PRMT5/MEP50 complex [1] and 368 nM at PRMT5/MEP50 complex [2].
Consider `C[C@](O)(c1ccc2c(c1)CC2)[C@H]1O[C@@H](n2ccc3c(N)ncnc32)[C@H](O)[C@@H]1O` [Example 39, (2R,3R,4S,5S)-2-(4-amino-7H-pyrrolo [2,3-d]pyrimidin-7-yl)-5-((S)-1-(bicyclo[4.2.0]octa-1(6),2,4-trien-3-yl)-1-hydroxyethyl)tetrahydrofuran-3,4-diol], for which the IC50 at PRMT5/MEP50 complex [1] is 1240 nM.
Regarding `C=C(C)c1ncnc2c1ccn2[C@@H]1O[C@H]([C@H](O)c2ccc3c(c2)CC3)[C@@H](O)[C@H]1O` [Example 40, (2R,3S,4R,5R)-2-((R)-bicyclo[4.2.0]octa-1(6),2,4-trien-3-yl(hydroxy)methyl)-5-(4-(prop-1-en-2-yl)-7H-pyrrolo[2,3-d]pyrimidin-7-yl)tetrahydrofuran-3,4-diol], the IC50 on PRMT5/MEP50 complex [1] was determined as 1030 nM.
Still for that read-out and setting: with `CC(C)c1ncnc2c1ccn2[C@@H]1O[C@H]([C@H](O)c2ccc3c(c2)CC3)[C@@H](O)[C@H]1O` [Example 41, (2R,3S,4R,5R)-2-((R)-bicyclo[4.2.0]octa-1(6),2,4-trien-3-yl(hydroxy)methyl)-5-(4-isopropyl-7H-pyrrolo[2,3-d]pyrimidin-7-yl)tetrahydrofuran-3,4-diol] the figure was 230 nM; with `CCCCc1ncnc2c1ccn2[C@@H]1O[C@H]([C@H](O)c2ccc3c(c2)CC3)[C@@H](O)[C@H]1O` [Example 42, (2R,3S,4R,5R)-2-((R)-bicyclo[4.2.0]octa-1,3,5-trien-3-yl(hydroxy)methyl)-5-(4-butyl-7H-pyrrolo[2,3-d]pyrimidin-7-yl)tetrahydrofuran-3,4-diol], 392 nM.
As to `OCc1ncnc2c1ccn2[C@@H]1O[C@H]([C@H](O)c2ccc3c(c2)CC3)[C@@H](O)[C@H]1O` [Example 43, (2R,3S,4R,5R)-2-((R)-bicyclo[4.2.0]octa-1,3,5-trien-3-yl(hydroxy)methyl)-5-(4-(hydroxymethyl)-7H-pyrrolo[2,3-d]pyrimidin-7-yl)tetrahydrofuran-3,4-diol], at PRMT5/MEP50 complex [1], the IC50 was found to be 181 nM.
As to `C=Cc1ncnc2c1ccn2[C@@H]1O[C@H]([C@H](O)c2ccc3c(c2)CC3)[C@@H](O)[C@H]1O` [Example 46, (2R,3S,4R,5R)-2-((R)-bicyclo[4.2.0]octa-1(6),2,4-trien-3-yl(hydroxy)methyl)-5-(4-vinyl-7H-pyrrolo[2,3-d]pyrimidin-7-yl)tetrahydrofuran-3,4-diol], the IC50 on PRMT5/MEP50 complex [1] was 2060 nM.
With `Cc1ncnc2c1ccn2[C@@H]1O[C@H]([C@@H](O)c2ccc3c(c2)CC3)[C@@H](O)[C@H]1O` [Example 47, (2R,3S,4R,5R)-2-((S)-bicyclo[4.2.0]octa-1,3,5-trien-3-yl(hydroxy)methyl)-5-(4-methyl-7H-pyrrolo[2,3-d]pyrimidin-7-yl)tetrahydrofuran-3,4-diol], on PRMT5/MEP50 complex [1], the IC50 worked out at 274 nM.
Consider `CCOCc1ncnc2c1ccn2[C@@H]1O[C@H]([C@H](O)c2ccc3c(c2)CC3)[C@@H](O)[C@H]1O` [Example 50, (2R,3S,4R,5R)-2-((R)-bicyclo[4.2.0]octa-1(6),2,4-trien-3-yl(hydroxy)methyl)-5-(4-(ethoxymethyl)-7H-pyrrolo[2,3-d]pyrimidin-7-yl)tetrahydrofuran-3,4-diol], for which the IC50 on PRMT5/MEP50 complex [1] amounted to 2520 nM.
As for `O[C@@H]1[C@H](O)[C@@H]([C@H](O)c2ccc3c(c2)CC3)O[C@H]1n1ccc2c(CCl)ncnc21` [Example 51, (2R,3S,4R,5R)-2-((R)-bicyclo[4.2.0]octa-1(6),2,4-trien-3-yl(hydroxy)methyl)-5-(4-(chloromethyl)-7H-pyrrolo[2,3-d]pyrimidin-7-yl)tetrahydrofuran-3,4-diol], the IC50 on PRMT5/MEP50 complex [1] was 51 nM.
Same read-out and setting: the result for `O[C@@H]1[C@H](O)[C@@H]([C@H](O)c2ccc3c(c2)CC3)O[C@H]1n1ccc2c(CCOCc3ccccc3)ncnc21` [Example 55, (2R,3R,4S,5R)-2-(4-(2-(benzyloxy)ethyl)-7H-pyrrolo[2,3-d]pyrimidin-7-yl)-5-((R)-bicyclo[4.2.0]octa-1(6),2,4-trien-3-yl(hydroxy)methyl)tetrahydrofuran-3,4-diol] reads 200 nM.

The values above are taken from patent US11524962B2, “Substituted pyrrolo[2,3-d]pyrimidines as inhibitors of protein arginine methyl transferase 5 (PRMT5)” (PRELUDE THERAPEUTICS, INCORPORATED, priority 2017, dated 2022).
